Data published in ChEMBL document CHEMBL3853264 (Medchemcomm, 2016).

Assays:
[1] = biological target: T1, Solute carrier family 22 member 12 (Homo sapiens, UniProt Q96S37); experiment: Inhibition of human C-terminal eGFP-tagged URAT1 long isoform expressed in CHO cells assessed as decrease in [14C]-uric acid uptake preincubated for 15 mins followed by [14C]-uric acid addition and incubated in dark for 3 hrs by scintillation counting method; type: cell-based
T1 sequence (Q96S37 whole entry): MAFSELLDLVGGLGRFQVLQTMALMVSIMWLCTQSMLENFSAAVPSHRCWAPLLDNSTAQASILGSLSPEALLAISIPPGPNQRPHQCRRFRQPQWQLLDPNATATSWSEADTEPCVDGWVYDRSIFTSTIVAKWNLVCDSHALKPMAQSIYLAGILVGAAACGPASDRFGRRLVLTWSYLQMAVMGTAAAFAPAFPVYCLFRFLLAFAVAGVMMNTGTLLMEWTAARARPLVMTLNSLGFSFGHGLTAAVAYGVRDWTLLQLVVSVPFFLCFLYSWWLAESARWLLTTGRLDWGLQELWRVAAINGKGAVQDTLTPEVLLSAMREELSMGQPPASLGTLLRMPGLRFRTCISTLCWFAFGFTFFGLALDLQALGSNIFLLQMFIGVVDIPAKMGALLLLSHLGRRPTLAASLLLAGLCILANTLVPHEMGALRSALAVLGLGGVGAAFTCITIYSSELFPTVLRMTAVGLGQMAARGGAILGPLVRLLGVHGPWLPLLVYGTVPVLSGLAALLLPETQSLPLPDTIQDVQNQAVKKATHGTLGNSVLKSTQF

[2] = Drug level in rat hepatocytes treated with 4-(3-chloro-4-(hydroxymethyl)phenoxy)-3-cyano-N-(5-fluoropyridin-2-yl)benzenesulfonamide; type: ADME, cell-based, Hepatocyte
[3] = biological target: T1, Solute carrier family 22 member 12; experiment: Inhibition of URAT1 (unknown origin)

Row | IC50 [1] [µM] | IC50 [3] [µM] | Compound | further results
1 | 0.088 |  | N#Cc1ccc(Oc2ccc(S(=O)(=O)Nc3ccc(F)cn3)cc2)cc1F | 
2 |  |  | N#Cc1cc(S(=O)(=O)Nc2ccc(F)cn2)ccc1Oc1ccc(CO[C@@H]2O[C@H](C(=O)O)[C@@H](O)[C@H](O)[C@H]2O)c(Cl)c1 | Drug metabolism [2]: Metabolite_Detected
3 | 1.12 |  | N#Cc1ccc(Oc2ccc(S(=O)(=O)Nc3ncns3)cc2C#N)cc1Cl | 
4 |  | > 75 | CC(C)OC(=O)C(C)(C)Oc1ccc(C(=O)c2ccc(Cl)cc2)cc1 [FENOFIBRATE] | 
5 |  | 11 | CC(C)(Oc1ccc(C(=O)c2ccc(Cl)cc2)cc1)C(=O)O [FENOFIBRIC ACID] | 
